molecular target: T1, human RXFP1 (Homo sapiens, UniProt Q9HBX9); test: hRXFP1 HEK293 cAMP assay (HTRF); format: cell-based; details: HEK293 cells stably expressing human RXFP1, 30 min at room temperature
T1 construct: expressed in transfected cells
T1 sequence (Q9HBX9 1-757): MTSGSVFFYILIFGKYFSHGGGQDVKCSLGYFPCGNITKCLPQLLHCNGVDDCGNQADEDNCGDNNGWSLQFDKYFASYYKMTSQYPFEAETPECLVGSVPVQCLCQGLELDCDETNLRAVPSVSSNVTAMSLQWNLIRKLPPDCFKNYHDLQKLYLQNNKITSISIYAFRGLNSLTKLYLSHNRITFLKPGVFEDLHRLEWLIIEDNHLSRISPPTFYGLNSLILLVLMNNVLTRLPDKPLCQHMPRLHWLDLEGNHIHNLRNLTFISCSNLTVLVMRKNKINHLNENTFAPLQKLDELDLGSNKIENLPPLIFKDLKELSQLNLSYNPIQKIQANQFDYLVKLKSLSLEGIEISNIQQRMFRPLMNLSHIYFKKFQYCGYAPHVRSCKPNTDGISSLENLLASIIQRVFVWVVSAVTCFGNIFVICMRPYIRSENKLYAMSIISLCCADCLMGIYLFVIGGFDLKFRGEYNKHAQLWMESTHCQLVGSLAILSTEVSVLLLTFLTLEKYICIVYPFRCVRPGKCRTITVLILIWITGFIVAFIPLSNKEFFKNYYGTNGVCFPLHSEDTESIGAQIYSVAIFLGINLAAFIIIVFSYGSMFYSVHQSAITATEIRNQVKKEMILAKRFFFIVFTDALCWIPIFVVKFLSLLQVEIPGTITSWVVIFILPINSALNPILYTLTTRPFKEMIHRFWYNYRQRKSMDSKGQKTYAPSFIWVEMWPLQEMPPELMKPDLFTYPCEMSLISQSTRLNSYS
Procedure, shortened: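 Intracellular cAMP was read by HTRF, with potency fitted to a 4-parameter logistic curve. Compound exposure (0.010 nM–50 μM final, 2% DMSO) lasted 30 min at room temperature. Cells were hRXFP1-HEK293 at 1500 per well in IBMX-containing (0.5 mM) HEPES-buffered HBSS.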

| SMILES | EC50 |
| --- | --- |
| COc1ccc(S(=O)(=O)N2CCN(C(=O)OC(C)(C)C)CC2CCO)cc1C(=O)N[C@H]1[C@@H](C(=O)Nc2ccc(F)c(C(F)(F)F)c2)[C@H]2CC[C@@H]1/C2=C\C(F)(F)F (stereo partly drawn) [Example 215, tert-butyl 4-(3-{[(1R,2R,3S,4R,7Z)-3-{[4-fluoro-3-(trifluoromethyl)phenyl]carbamoyl}-7-(2.2,2-trifluoroethylidene)bicyclo[2.2.1]heptan-2-yl]carbamoyl}-4-methoxy-benzenesulfonyl)-3-(2-hydroxyethyl) piperazine-1-carboxylate] | 761 nM |
| COc1ccc(S(=O)(=O)N2CCNCC2CCO)cc1C(=O)N[C@H]1[C@@H](C(=O)Nc2ccc(F)c(C(F)(F)F)c2)[C@H]2CC[C@@H]1/C2=C\C(F)(F)F (stereo partly drawn) [Example 216, (1R,2S,3R,4R,7Z)-N-[4-fluoro-3-(trifluoromethyl)phenyl]-3-(5-{[2-(2-hydroxyethyl)piperazin-1-yl]sulfonyl}-2-methoxybenzamido)-7-(2,2,2-trifluoroethylidene) bicyclo[2.2.1]heptane-2-carboxamide] | 281 nM |
| COc1ccc(S(=O)(=O)N(CCO)CCO)cc1C(=O)N[C@H]1[C@@H](C(=O)Nc2ccc(F)c(C(F)(F)F)c2)[C@H]2CC[C@@H]1/C2=C\C(F)(F)F [Example 217, (1R,2S,3R,4R,7Z)-3-{5-[bis(2-hydroxyethyl)sulfamoyl]-2-methoxybenzamido}-N-[4-fluoro-3-(trifluoromethyl)phenyl]-7-(2,2,2-trifluoroethylidene) bicyclo[2.2.1] heptane-2-carboxamide] | 221 nM |
| COc1ccc(S(=O)(=O)N2CCN(C)CC2CO)cc1C(=O)N[C@H]1[C@@H](C(=O)Nc2ccc(F)c(C(F)(F)F)c2)[C@H]2CC[C@@H]1/C2=C\C(F)(F)F (stereo partly drawn) [Example 218] | 714 nM |
| COc1ccc(S(=O)(=O)N2CCC(CCO)CC2)cc1C(=O)N[C@H]1[C@@H](C(=O)Nc2ccc(F)c(C(F)(F)F)c2)[C@H]2CC[C@@H]1/C2=C\C(F)(F)F [Example 219, (1R,2S,3R,4R,7Z)-N-[4-fluoro-3-(trifluoromethyl)phenyl]-3-(5-{[4-(2-hydroxyethyl)piperidin-1-yl]sulfonyl}-2-methoxybenzamido)-7-(2,2,2-trifluoroethylidene) bicyclo[2.2.1]heptane-2-carboxamide] | 317 nM |
| COc1ccc(S(=O)(=O)N2CCN3C(=O)OCC3C2)cc1C(=O)N[C@H]1[C@@H](C(=O)Nc2ccc(F)c(C(F)(F)F)c2)[C@H]2CC[C@@H]1/C2=C\C(F)(F)F (stereo partly drawn) [Example 220, (1R,2S,3R,4R,7Z)-N-[4-fluoro-3-(trifluoromethyl)phenyl]-3-[2-methoxy-5-({3-oxo-hexahydro-1H-[1,3]oxazolo[3,4-a]piperazin-7-yl}sulfonyl)benzamido]-7-(2,2,2-trifluoroethylidene) bicyclo[2.2.1] heptane-2-carboxamide] | 459 nM |
| COc1ccc(S(=O)(=O)N2CC3CCC(C2)O3)cc1C(=O)N[C@H]1[C@@H](C(=O)Nc2ccc(F)c(C(F)(F)F)c2)[C@H]2CC[C@@H]1/C2=C\C1CC1 [Example 221, (1R,2S,3R,4R,7Z)-7-(cyclopropylmethyl-idene)-N-[4-fluoro-3-(trifluoromethyl)phenyl]-3-(2-methoxy-5-{8-oxa-3-azabicyclo[3.2.1]octane-3-sulfonyl}benzamido) bicyclo[2.2.1]heptane-2-carboxamide] | 44.9 nM |
| COc1ccc(S(=O)(=O)N2CCS(=O)(=O)CC2)cc1C(=O)N[C@H]1[C@@H](C(=O)Nc2ccc(F)c(C(F)(F)F)c2)[C@H]2CC[C@@H]1/C2=C\C1CC1 [Example 222, (1R,2S,3R,4R,7Z)-7-(cyclopropylmethylidene)-3-{5-[(1,1-dioxo-1λ^6-thiomorpholin-4-yl)sulfonyl]-2-methoxybenzamido}-N-[4-fluoro-3-(trifluoromethyl)phenyl]bicyclo[2.2.1] heptane-2-carboxamide] | 84.9 nM |
| COc1ccc(S(=O)(=O)N2CCN3C(=O)CCC3C2)cc1C(=O)N[C@H]1[C@@H](C(=O)Nc2ccc(F)c(C(F)(F)F)c2)[C@H]2CC[C@@H]1/C2=C\C1CC1 (stereo partly drawn) [Example 223, (1R,2S,3R,4R,7Z)-7-(cyclopropyl-methylidene)-N-[4-fluoro-3-(trifluoromethyl)phenyl]-3-[2-methoxy-5-({6-oxo-octahydropyrrolo[1,2-a]piperazin-2-yl}sulfonyl)benzamido] bicyclo[2.2.1] heptane-2-carboxamide] | 145 nM |
| COc1ccc(S(=O)(=O)N2CCOC[C@H]2CO)cc1C(=O)N[C@H]1[C@@H](C(=O)Nc2ccc(F)c(C(F)(F)F)c2)[C@H]2CC[C@@H]1/C2=C\C1CC1 [Example 224, (1R,2S,3R,4R,7Z)-7-(cyclopropylmethyl-idene)-N-[4-fluoro-3-(trifluoromethyl)phenyl]-3-(5-{[(3R)-3-(hydroxymethyl)morpholin-4-yl]sulfonyl}-2-methoxybenzamido) bicyclo[2.2.1] heptane-2-carboxamide] | 80.3 nM |
| COc1ccc(S(=O)(=O)N2CCN(C(=O)OC(C)(C)C)[C@H](CO)C2)cc1C(=O)N[C@H]1[C@@H](C(=O)Nc2ccc(F)c(C(F)(F)F)c2)[C@H]2CC[C@@H]1/C2=C\C(F)(F)F [Example 225, tert-butyl (2S)-4-(3-{[(1R,2R,3S,4R,7Z)-3-{[4-fluoro-3-(trifluoromethyl)phenyl]carbamoyl}-7-(2,2,2-trifluoroethylidene)bicyclo[2.2.1]heptan-2-yl]carbamoyl}-4-methoxy-benzenesulfonyl-2-(hydroxymethyl)piperazine-1-carboxylate] | 4270 nM |
| COc1ccc(S(=O)(=O)N2CCN(C(=O)OC(C)(C)C)[C@@H](CO)C2)cc1C(=O)N[C@H]1[C@@H](C(=O)Nc2ccc(F)c(C(F)(F)F)c2)[C@H]2CC[C@@H]1/C2=C\C(F)(F)F [Example 226, tert-butyl (2R)-4-(3-{[(1R,2R,3S,4R,7Z)-3-{[4-fluoro-3-(trifluoromethyl)phenyl]carbamoyl}-7-(2,2,2-trifluoroethylidene)bicyclo[2.2.1]heptan-2-yl]carbamoyl}-4-methoxy-benzenesulfonyl)-2-(hydroxymethyl) piperazine-1-carboxylate] | 1730 nM |
| COc1ccc(C(=O)OC(C)(C)C)cc1C(=O)N[C@H]1[C@@H](C(=O)Nc2ccc(F)c(C(F)(F)F)c2)[C@H]2CC[C@@H]1/C2=C\C1CC1 [Example 227] | 77.2 nM |
| COc1ccc(C(=O)NCCCO)cc1C(=O)N[C@H]1[C@@H](C(=O)Nc2ccc(F)c(C(F)(F)F)c2)[C@H]2CC[C@@H]1/C2=C\C1CC1 [Example 229, N3-[(1R,2R,3S,4R,7Z)-7-(cyclopropyl-methylidene)-3-{[4-fluoro-3-(trifluoromethyl)phenyl]carbamoyl}bicyclo[2.2.1]heptan-2-yl]-N1-(3-hydroxypropyl)-4-methoxybenzene-1,3-dicarboxamide] | 183 nM |
| COc1ccc(C(=O)N2CCC(O)CC2)cc1C(=O)N[C@H]1[C@@H](C(=O)Nc2ccc(F)c(C(F)(F)F)c2)[C@H]2CC[C@@H]1/C2=C\C1CC1 [Example 230, (1R,2S,3R,4R,7Z)-7-(cyclopropyl-methylidene)-N-[4-fluoro-3-(trifluoromethyl)phenyl]-3-[5-(4-hydroxypiperidine-1-carbonyl)-2-methoxybenzamido] bicyclo[2.2.1] heptane-2-carboxamide] | 26 nM |
| COc1ccc(C(=O)N2CCO[C@@H](CO)C2)cc1C(=O)N[C@H]1[C@@H](C(=O)Nc2ccc(F)c(C(F)(F)F)c2)[C@H]2CC[C@@H]1/C2=C\C1CC1 [Example 231, (1R,2S,3R,4R,7Z)-7-(cyclopropylmethyl-idene)-N-[4-fluoro-3-(trifluoromethyl)phenyl]-3-{5-[(2R)-2-(hydroxymethyl)morpholine-4-carbonyl]-2-methoxybenzamido} bicyclo[2.2.1] heptane-2-carboxamide] | 32 nM |
| COc1ccc(C(=O)NCC2(S(C)(=O)=O)CC2)cc1C(=O)N[C@H]1[C@@H](C(=O)Nc2ccc(F)c(C(F)(F)F)c2)[C@H]2CC[C@@H]1/C2=C\C1CC1 [Example 232, N3-[(1R,2R,3S,4R,7Z)-7-(cyclopropyl-methylidene)-3-{[4-fluoro-3-(trifluoromethyl)phenyl]carbamoyl}bicyclo[2.2.1]heptan-2-yl]-NI-[(1-methanesulfonyl-cyclopropyl)methyl]-4-methoxybenzene-1,3-dicarboxamide] | 0.95 nM |
| COc1ccc(C(=O)N2CCCC(CO)C2)cc1C(=O)N[C@H]1[C@@H](C(=O)Nc2ccc(F)c(C(F)(F)F)c2)[C@H]2CC[C@@H]1/C2=C\C1CC1 (stereo partly drawn) [Example 233, (1R,2S,3R,4R,7Z)-7-(cyclopropyl-methylidene)-N-[4-fluoro-3-(trifluoromethyl)phenyl]-3-[5-[3-(hydroxymethyl)piperidine-1-carbonyl]-2-methoxybenzamido} bicyclo[2.2.1] heptane-2-carboxamide] | 65.7 nM |

— patent US20250268903A1, “RXFP1 AGONISTS” (BRISTOL-MYERS SQUIBB COMPANY, priority 2021, published 2025)
